Experimental data: ChEMBL document CHEMBL4196118, “Discovery of MK-8318, a Potent and Selective CRTh2 Receptor Antagonist for the Treatment of Asthma” (ACS Med Chem Lett, 2018)
Blank lines part the entries; values can stand above or below the compound they belong to.

How the values were obtained:
[1] = molecular target: T1, Prostaglandin D2 receptor 2 (Homo sapiens, UniProt Q9Y5Y4); experiment: […] activity at human CRTh2 expressed in HEK cells assessed as forskolin-induced intracellular cAMP accumulation by ELISA based chemiluminescence assay; assay type: functional, cell-based
T1 sequence (Q9Y5Y4 whole entry): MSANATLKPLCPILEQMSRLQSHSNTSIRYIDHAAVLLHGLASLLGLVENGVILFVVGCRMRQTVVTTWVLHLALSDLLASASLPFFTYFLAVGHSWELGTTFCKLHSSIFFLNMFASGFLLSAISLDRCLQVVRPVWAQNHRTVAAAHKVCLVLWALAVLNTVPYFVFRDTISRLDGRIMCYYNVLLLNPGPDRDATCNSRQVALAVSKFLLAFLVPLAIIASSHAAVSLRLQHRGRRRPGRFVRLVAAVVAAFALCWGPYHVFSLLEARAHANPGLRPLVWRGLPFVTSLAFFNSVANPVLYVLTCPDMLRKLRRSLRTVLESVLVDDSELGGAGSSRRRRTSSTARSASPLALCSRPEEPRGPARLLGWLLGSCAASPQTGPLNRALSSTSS

[2] = molecular target: T1, Prostaglandin D2 receptor 2
[3] = molecular target: T1, Prostaglandin D2 receptor 2; experiment: biochemical
Description: Displacement of [3H]PGD2 from human CRTh2 expressed in HEK cell membranes after 60 mins by scintillation counting method

[4] = AUC (0 to 6 hrs) in rat at 0.5 mg/kg, iv; assay type: ADME, organism-based; set-up: time < 6 hr, dose 0.5 mg/kg, route intravenous; details: in vivo
[5] = Intrinsic clearance in rat hepatocytes assessed per million cells; assay type: ADME, cell-based, Hepatocyte; details: read-out: CLH
[6] = molecular target: T1, Prostaglandin D2 receptor 2; remark: listed apart in the source
Description: Antagonist activity at human CRTh2 expressed in CHOK1 cells assessed as inhibition of PGD2-induced beta-arrestin recruitment incubated for 30 mins followed by PGD2 stimulation measured after 60 mins by PathHunter based chemiluminescence assay

[7] = AUC (0 to 6 hrs) in rat at 2 mg/kg, iv; assay type: ADME, organism-based; set-up: time < 6 hr, dose 2 mg/kg, route intravenous; details: in vivo

Structure (SMILES): CCN(c1nc(C(=O)O)cs1)[C@H]1c2ccccc2N(C(=O)OCc2ccccc2)[C@H]2CCC[C@@H]12
EC50 [1]: 12 nM
IC50 [2]: 2920 nM
Ki [3]: 51 nM

Structure (SMILES): O=C(O)CCC(=O)N(C1CC1)[C@H]1c2ccccc2N(C(=O)c2cccc(F)c2)[C@H]2CC[C@H]21
AUC(0-t) at 6 h [4]: 0.3 µM·h
hepatocyte CLint [5]: 16 µL/min/1e6 cells
IC50 [6]: 9.3 nM
Ki [3]: 8.1 nM

Structure (SMILES): O=C(O)COC(=O)N(C1CC1)[C@H]1c2ccccc2N(C(=O)c2cccc(F)c2)[C@H]2CC[C@H]21
hepatocyte CLint [5]: 20 µL/min/1e6 cells
IC50 [2]: 0.8 nM
IC50 [6]: 1.1 nM
Ki [3]: 4.1 nM

Structure (SMILES): O=C(O)CCC(=O)N(C1CC1)[C@H]1c2cc(C3CC3)ccc2N(C(=O)c2ccc(OC(F)(F)F)cc2)[C@H]2CCC[C@H]21
Ki [3]: 43 nM

Structure (SMILES): O=C(O)CCC(=O)N(C1CC1)[C@H]1c2cc(-c3ccc(F)cc3)ccc2N(C(=O)c2ccc(OC(F)(F)F)cc2)[C@H]2CCC[C@H]21
Ki [3]: 110 nM

Structure (SMILES): O=C(O)CCC(=O)N(C1CC1)[C@H]1c2cc(-c3cncnc3)ccc2N(C(=O)c2ccc(OC(F)(F)F)cc2)[C@H]2CCC[C@H]21
Ki [3]: 300 nM

Structure (SMILES): O=C(O)CCC(=O)N(C1CC1)[C@H]1c2cc(F)c(Cl)cc2N(C(=O)c2ccc(OC(F)(F)F)cc2)[C@H]2CCC[C@H]21
AUC(0-t) at 6 h [4]: 1.05 µM·h
IC50 [2]: 18 nM
IC50 [6]: 12 nM
Ki [3]: 3.4 nM

Structure (SMILES): O=C(O)CCC(=O)N(C1CC1)[C@H]1c2ccc(Cl)cc2N(C(=O)c2ccc(OC(F)(F)F)cc2)[C@H]2CCC[C@H]21
IC50 [2]: 110 nM
IC50 [6]: 59 nM
Ki [3]: 2.3 nM

Structure (SMILES): O=C(O)CCC(=O)N(C1CC1)[C@H]1c2ccccc2N(C(=O)c2ccc(F)cc2)[C@H]2CC[C@H]21
AUC(0-t) at 6 h [4]: 0.46 µM·h
hepatocyte CLint [5]: 14 µL/min/1e6 cells
IC50 [2]: 20 nM
IC50 [6]: 12 nM
Ki [3]: 7.3 nM

Structure (SMILES): O=C(O)COC(=O)N(C1CC1)C1c2ccccc2N(C(=O)c2ccccc2)C2CCCC21 (racemic)
Ki [3]: 9.4 nM

Structure (SMILES): O=C(O)CCC(=O)N(CC1CCC1)[C@H]1c2ccccc2N(C(=O)c2ccc(OC(F)(F)F)cc2)[C@H]2CCCC12 (single isomer, unassigned)
Ki [3]: 9 nM

Structure (SMILES): CC(C)N(C(=O)CCC(=O)O)[C@H]1c2ccccc2N(C(=O)c2ccc(OC(F)(F)F)cc2)[C@H]2CCCC21 (single isomer, unassigned)
Ki [3]: 50 nM

Structure (SMILES): O=C(O)CCC(=O)N(C1CC1)[C@H]1c2ccccc2N(C(=O)OCc2ccc(F)cc2)[C@H]2CCC[C@H]21
AUC(0-t) at 6 h [4]: 0.27 µM·h
Ki [3]: 12 nM

Structure (SMILES): O=C(O)CCC(=O)N(C1CC1)[C@H]1c2ccccc2N(C(=O)Nc2ccccc2)[C@H]2CCC[C@H]21
Ki [3]: 56 nM

Structure (SMILES): CCN(C(C)=O)[C@H]1c2ccccc2N(C(=O)c2ccccc2)[C@H]2CCC[C@@H]12
IC50 [2]: 1840 nM
Ki [3]: 26 nM

Structure (SMILES): O=C(c1ccc(OC(F)(F)F)cc1)N1c2ccccc2[C@H](N(C(=O)CCc2nn[nH]n2)C2CC2)[C@@H]2CCC[C@@H]21
Ki [3]: 98 nM

Structure (SMILES): CN(C(=O)CCC(=O)O)[C@H]1c2ccccc2N(C(=O)c2ccc(OC(F)(F)F)cc2)[C@H]2CCCC12 (single isomer, unassigned)
Ki [3]: 16 nM

Structure (SMILES): C[C@H](CC(=O)N(C1CC1)[C@H]1c2ccccc2N(C(=O)OCc2ccccc2)[C@H]2CCC[C@H]21)C(=O)O
Ki [3]: 82 nM

Structure (SMILES): CCc1ccc2c(c1)[C@H](N(C(=O)CCC(=O)O)C1CC1)[C@@H]1CCC[C@@H]1N2C(=O)c1ccc(OC(F)(F)F)cc1
Ki [3]: 31 nM

Structure (SMILES): O=C(O)CCC(=O)N(C1CC1)[C@H]1c2cc(F)ccc2N(C(=O)c2ccc(SC(F)(F)F)cc2)[C@H]2CCC[C@H]21
AUC(0-t) at 6 h [7]: 1.87 µM·h
IC50 [2]: 12 nM
IC50 [6]: 2.4 nM
Ki [3]: 8.4 nM

Structure (SMILES): O=C(O)CCC(=O)N(C1CC1)C1c2ccccc2N(C(=O)OCc2ccccc2)C2CCC21 (racemic)
IC50 [2]: 210 nM
Ki [3]: 25 nM

Structure (SMILES): O=C(O)CCC(=O)N(C1CC1)[C@H]1c2ccccc2N(CC(=O)Nc2ccc(F)cc2)[C@H]2CCC[C@H]21
Ki [3]: 660 nM

Structure (SMILES): O=C(O)c1ccccc1C(=O)N(C1CC1)[C@H]1c2ccccc2N(C(=O)c2ccc(OC(F)(F)F)cc2)[C@H]2CCC[C@H]21
Ki [3]: 840 nM

Structure (SMILES): C[C@@H](OC(=O)N1c2ccccc2[C@H](N(C(=O)CCC(=O)O)C2CC2)[C@@H]2CCC[C@@H]21)c1ccc(F)cc1
AUC(0-t) at 6 h [4]: 0.63 µM·h

Continued, values first:

Ki [3]: 28 nM
Structure (SMILES): O=C(O)CCC(=O)N(C1CC1)[C@H]1c2ccccc2N(c2nnc(-c3ccccc3)o2)[C@H]2CCC[C@H]21

IC50 [2]: 175 nM
Ki [3]: 32 nM
Structure (SMILES): O=C(O)CCC(=O)N(C1CC1)C1c2ccccc2N(C(=O)OCc2ccccc2)C2CCCCC21 (racemic)

Ki [3]: 64 nM
Structure (SMILES): CC1(N(C(=O)CCC(=O)O)[C@H]2c3ccccc3N(C(=O)c3ccc(OC(F)(F)F)cc3)[C@H]3CCCC32)CC1 (single isomer, unassigned)

Ki [3]: 8.6 nM
Structure (SMILES): O=C(O)CCC(=O)N(C1CCC1)[C@H]1c2ccccc2N(C(=O)c2ccc(OC(F)(F)F)cc2)[C@H]2CCCC21 (single isomer, unassigned)

hepatocyte CLint [5]: 13 µL/min/1e6 cells
Structure (SMILES): O=C(O)CCC(=O)N(C1CC1)[C@H]1c2ccccc2N(C(=O)c2ccc(OC(F)(F)F)cc2)[C@H]2CC[C@H]21

AUC(0-t) at 6 h [4]: 0.31 µM·h
hepatocyte CLint [5]: 15 µL/min/1e6 cells
IC50 [6]: 43 nM
Ki [3]: 5 nM
Structure (SMILES): O=C(O)CCC(=O)N(C1CC1)[C@H]1c2ccccc2N(C(=O)c2cccc(OC(F)(F)F)c2)[C@H]2CC[C@H]21

Ki [3]: 14 nM
Structure (SMILES): O=C(O)CCC(=O)N(C1CC1)[C@H]1c2cc(C(F)F)ccc2N(C(=O)c2ccc(OC(F)(F)F)cc2)[C@H]2CCC[C@H]21

hepatocyte CLint [5]: 18 µL/min/1e6 cells
IC50 [2]: 0.9 nM
IC50 [6]: 1.4 nM
Ki [3]: 2.5 nM
Structure (SMILES): O=C(O)COC(=O)N(C1CC1)[C@H]1c2ccccc2N(C(=O)c2ccc(OC(F)(F)F)cc2)[C@H]2CC[C@H]21

Ki [3]: 1490 nM
Structure (SMILES): O=C(O)CCCC(=O)N(C1CC1)C1c2ccccc2N(C(=O)OCc2ccccc2)C2CCCC21 (racemic)

AUC(0-t) at 6 h [4]: 0.62 µM·h
Ki [3]: 7 nM
Structure (SMILES): O=C(O)CCC(=O)N(C1CC1)[C@H]1c2ccccc2N(C(=O)c2ccc(OC(F)(F)F)cc2)[C@H]2CCCC21 (single isomer, unassigned)

AUC(0-t) at 6 h [4]: 0.32 µM·h
Structure (SMILES): C[C@H](OC(=O)N1c2ccccc2[C@H](N(C(=O)CCC(=O)O)C2CC2)[C@@H]2CCC[C@@H]21)c1ccc(F)cc1

Ki [3]: 510 nM
Structure (SMILES): CC(CC(=O)N(C1CC1)[C@H]1c2ccccc2N(C(=O)OCc2ccccc2)[C@H]2CCC[C@H]21)C(=O)O (some centres not stated)

Ki [3]: 12 nM
Structure (SMILES): CCN(C(=O)CCC(=O)O)[C@H]1c2ccccc2N(C(=O)c2ccc(OC(F)(F)F)cc2)[C@H]2CCCC12 (single isomer, unassigned)

hepatocyte CLint [5]: 13 µL/min/1e6 cells
IC50 [2]: 2 nM
IC50 [6]: 1.4 nM
Ki [3]: 3.5 nM
Structure (SMILES): O=C(O)COC(=O)N(C1CC1)[C@H]1c2ccccc2N(C(=O)c2ccc(F)cc2)[C@H]2CC[C@H]21

Ki [3]: 7800 nM
Structure (SMILES): CC(C)(CC(=O)N(C1CC1)[C@H]1c2ccccc2N(C(=O)OCc2ccccc2)[C@H]2CCC[C@H]21)C(=O)O

AUC(0-t) at 6 h [4]: 0.043 µM·h
Structure (SMILES): O=C(O)CCC(=O)N(C1CC1)[C@H]1c2ccc(F)cc2N(C(=O)c2ccc(OC(F)(F)F)cc2)[C@H]2CCC[C@H]21

Ki [3]: 35 nM
Structure (SMILES): O=C(O)CCC(=O)N(CCC(F)(F)F)[C@H]1c2ccccc2N(C(=O)c2ccc(OC(F)(F)F)cc2)[C@H]2CCCC12 (single isomer, unassigned)

IC50 [2]: 41 nM
Ki [3]: 10 nM
Structure (SMILES): O=C(O)CCC(=O)N(C1CC1)C1c2ccccc2N(C(=O)c2ccccc2)C2CCCC21 (racemic)
